The source of these data is US8399480B2, “Hydroxymethyl pyrrolidines as beta 3 adrenergic receptor agonists” (Merck Sharp & Dohme Corp., priority 2008, dated 2013).

Some results are limits rather than exact numbers.

The target in the first assay is T1, human β3 adrenergic receptor (Homo sapiens, UniProt P13945).
T1 construct: expressed in transfected cells; host or cells: Chinese hamster ovary (CHO) cells, stably transfected
T1 sequence (P13945 whole entry): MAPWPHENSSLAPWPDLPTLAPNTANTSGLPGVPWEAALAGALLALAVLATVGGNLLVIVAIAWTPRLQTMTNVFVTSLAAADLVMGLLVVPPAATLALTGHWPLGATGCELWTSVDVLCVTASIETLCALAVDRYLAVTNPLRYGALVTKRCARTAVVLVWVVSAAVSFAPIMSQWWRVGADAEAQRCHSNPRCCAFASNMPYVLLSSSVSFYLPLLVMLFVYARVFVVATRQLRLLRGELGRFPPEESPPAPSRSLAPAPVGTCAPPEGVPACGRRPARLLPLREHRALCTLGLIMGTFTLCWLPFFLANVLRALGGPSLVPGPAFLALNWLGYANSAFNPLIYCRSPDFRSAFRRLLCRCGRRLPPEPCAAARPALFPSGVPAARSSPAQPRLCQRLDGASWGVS
Description: Functional assay: cAMP production (LANCE TR-FRET) in CHO cells stably transfected with cloned β3 adrenergic receptor. It counts as cell-based. The following applies: Table 4; human β3 functional activity; read-out: Human β Binding. Summed up: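 Agonist-stimulated cAMP in CHO cells stably expressing human β3 receptor, 6,000 cells per well in HBSS/HEPES/0.1% BSA with 0.6 mM IBMX, 30 min at room temperature. LANCE TR-FRET readout converted to cAMP via standard curve; maximal stimulation defined with isoproterenol.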
On the technique in general: cAMP levels reflect the balance of adenylyl cyclase and phosphodiesterase activity.
As for `O=C(Cc1nnc[nH]1)Nc1ccc(C[C@@H]2CC[C@H]([C@H](O)c3ccccc3)N2)cc1` [Example 73], the EC50 is 11 to 100 nM. `Cn1ncc2c(=O)n(CC(=O)Nc3ccc(C[C@@H]4CC[C@H]([C@H](O)c5ccccc5)N4)cc3)cnc21` [Example 60]: the EC50 was 1 to 10 nM.

Consider `O=C(Cc1cnccn1)Nc1ccc(C[C@@H]2CC[C@H]([C@H](O)c3ccccc3)N2)cc1` [Example 94], for which the EC50 lay in the range of 1 to 10 nM.

As to `O=C(Cn1cnc2ccccc2c1=O)Nc1ccc(C[C@@H]2CC[C@H]([C@H](O)c3ccccc3)N2)cc1` [Example 16], the EC50 fell in the range of 1 to 10 nM.

With `O=C(Cn1cnc2sccc2c1=O)Nc1ccc(C[C@@H]2CC[C@H]([C@H](O)c3ccccc3)N2)cc1` [Example 55], the EC50 lay in the range of 1 to 10 nM.

Consider `Cc1nc(C)c(CC(=O)Nc2ccc(C[C@@H]3CC[C@H]([C@H](O)c4ccccc4)N3)cc2)s1` [Example 10], for which the EC50 is 1 to 10 nM. On the same count and under the same terms, as for `O=C(Cn1ncc2ccccc21)Nc1ccc(C[C@@H]2CC[C@H]([C@H](O)c3ccccc3)N2)cc1` [Example 6], the figure is 1 to 10 nM; as for `O=C(CN1CCCC1=O)Nc1ccc(C[C@@H]2CC[C@H]([C@H](O)c3ccccc3)N2)cc1` [Example 87], 1 to 10 nM.

For `O=C(Nc1ccc(C[C@@H]2CC[C@H]([C@H](O)c3ccccc3)N2)cc1)c1ccccc1COc1ccccc1` [Example 31], the EC50 was in the range of 101 to 1000 nM. Regarding `O=C(Nc1ccc(C[C@@H]2CC[C@H]([C@H](O)c3ccccc3)N2)cc1)C1CCCN1c1nc2ccccc2s1` (stereo partly shown) [Example 40], the EC50 fell in the range of 11 to 100 nM. Still for that read-out and setting: as for `O=C(Cn1ncccc1=O)Nc1ccc(C[C@@H]2CC[C@H]([C@H](O)c3ccccc3)N2)cc1` [Example 20], the figure is 1 to 10 nM; as for `NC(=O)c1nn(CC(=O)Nc2ccc(C[C@@H]3CC[C@H]([C@H](O)c4ccccc4)N3)cc2)c(=O)c2ccccc12` [Example 54], 1 to 10 nM. Same read-out and setting: as for `O=C(Cc1ccccn1)Nc1ccc(C[C@@H]2CC[C@H]([C@H](O)c3ccccc3)N2)cc1` [Example 43], the figure is 11 to 100 nM.

Still in this assay, the particulars now being: Table 5; read-out: Human β3 Functional.
Regarding `COCCC(C(=O)Nc1ccc(C[C@@H]2CC[C@H]([C@H](O)c3ccccc3)N2)cc1)n1cccn1` (single isomer, unassigned) [Example 224], the EC50 is 11 to 100 nM. On the same count and under the same terms, as for `Cc1n[nH]c2c1CCC2C(=O)Nc1ccc(C[C@@H]2CC[C@H]([C@H](O)c3ccccc3)N2)cc1` (single isomer, unassigned) [Example 139], the figure is 1 to 10 nM; as for `CCC(C(=O)Nc1ccc(C[C@@H]2CC[C@H]([C@H](O)c3ccccc3)N2)cc1)n1nccn1` (single isomer, unassigned) [Example 217], 1 to 10 nM; as for `COc1ncncc1C(C)C(=O)Nc1ccc(C[C@@H]2CC[C@H]([C@H](O)c3ccccc3)N2)cc1` (single isomer, unassigned) [Example 212], 11 to 100 nM. Same read-out and setting: as for `CC(C(=O)Nc1ccc(C[C@@H]2CC[C@H]([C@H](O)c3ccccc3)N2)cc1)N1CCOC1=O` (single isomer, unassigned) [Example 209], the figure is 11 to 100 nM; as for `CCC(C(=O)Nc1ccc(C[C@@H]2CC[C@H]([C@H](O)c3ccccc3)N2)cc1)n1nccn1` (single isomer, unassigned) [Example 216], 1 to 10 nM; as for `CC(C(=O)Nc1ccc(C[C@@H]2CC[C@H]([C@H](O)c3ccccc3)N2)cc1)n1cncn1` (single isomer, unassigned) [Example 176], 1 to 10 nM. Still for that read-out and setting: as for `CC(C(=O)Nc1ccc(C[C@@H]2CC[C@H]([C@H](O)c3ccccc3)N2)cc1)n1cc(C(N)=O)nn1` (single isomer, unassigned) [Example 193], the figure is 11 to 100 nM; as for `O=C(Nc1ccc(C[C@@H]2CC[C@H]([C@H](O)c3ccccc3)N2)cc1)C1CCc2sc(F)nc21` (single isomer, unassigned) [Example 147], less than 1 nM. On to `COC(=O)c1cnnn1C(C)C(=O)Nc1ccc(C[C@@H]2CC[C@H]([C@H](O)c3ccccc3)N2)cc1` (single isomer, unassigned) [Example 194], for which the EC50 is 11 to 100 nM. Same read-out and setting: as for `Cc1cc(C(C)C(=O)Nc2ccc(C[C@@H]3CC[C@H]([C@H](O)c4ccccc4)N3)cc2)[nH]n1` (single isomer, unassigned) [Example 184], the figure is 11 to 100 nM; as for `CC(C(=O)Nc1ccc(C[C@@H]2CC[C@H]([C@H](O)c3ccccc3)N2)cc1)n1cccn1` (single isomer, unassigned) [Example 181], 1 to 10 nM; as for `CC(C(=O)Nc1ccc(C[C@@H]2CC[C@H]([C@H](O)c3ccccc3)N2)cc1)N1CCOC1=O` (single isomer, unassigned) [Example 208], 1 to 10 nM.

For `O=C(Nc1ccc(C[C@@H]2CC[C@H]([C@H](O)c3ccccc3)N2)cc1)C1CCc2cccnc21` (single isomer, unassigned) [Example 133], the EC50 was less than 1 nM.

Consider `Cc1nnc2n1CCCC2C(=O)Nc1ccc(C[C@@H]2CC[C@H]([C@H](O)c3ccccc3)N2)cc1` (single isomer, unassigned) [Example 150], for which the EC50 lay in the range of 1 to 10 nM. Take `Cc1nnc2n1CCC2C(=O)Nc1ccc(C[C@@H]2CC[C@H]([C@H](O)c3ccccc3)N2)cc1` (single isomer, unassigned) [Example 124]: the EC50 was in the range of 1 to 10 nM. On the same count and under the same terms, as for `O=C(Nc1ccc(C[C@@H]2CC[C@H]([C@H](O)c3ccccc3)N2)cc1)C1CCn2nnnc21` (single isomer, unassigned) [Example 131], the figure is 1 to 10 nM; as for `O=C(Nc1ccc(C[C@@H]2CC[C@H]([C@H](O)c3ccccc3)N2)cc1)C1CCc2cccnc21` (single isomer, unassigned) [Example 132], less than 1 nM. Still for that read-out and setting: as for `CC(Oc1cccnn1)C(=O)Nc1ccc(C[C@@H]2CC[C@H]([C@H](O)c3ccccc3)N2)cc1` (single isomer, unassigned) [Example 215], the figure is 11 to 100 nM.

In the case of `O=C(Nc1ccc(C[C@@H]2CC[C@H]([C@H](O)c3ccccc3)N2)cc1)C1CCc2sc(F)nc21` (single isomer, unassigned) [Example 146], the EC50 is less than 1 nM. On the same count and under the same terms, as for `O=C(Nc1ccc(C[C@@H]2CC[C@H]([C@H](O)c3ccccc3)N2)cc1)C1CCCn2ccnc21` (single isomer, unassigned) [Example 154], the figure is 1000 to 3000 nM; as for `O=C(Nc1ccc(C[C@@H]2CC[C@H]([C@H](O)c3ccccc3)N2)cc1)C1CCc2ccccc21` (single isomer, unassigned) [Example 111], 101 to 1000 nM. Still for that read-out and setting: as for `Cc1nnc2n1C(C(=O)Nc1ccc(C[C@@H]3CC[C@H]([C@H](O)c4ccccc4)N3)cc1)CC2` (single isomer, unassigned) [Example 126], the figure is 11 to 100 nM.

The same assay, now with this note: Table 6; read-out: Human β3 Functional.
Turning to `Nc1nc2c(s1)CCCC2C(=O)Nc1ccc(CC2CCC(C(O)c3ccccc3)N2)cc1` (single isomer, unassigned) [Example 228], the EC50 lay within 1000 to 3000 nM.

The same assay, now with this note: Table 7; β3AR-cAMP; read-out: Human β3 Functional.
Take `Cn1cnc(S(=O)(=O)Nc2ccc(C[C@@H]3CC[C@H]([C@H](O)c4ccccc4)N3)cc2)c1` [Example 246]: the EC50 is 101 to 1000 nM.

`O=S(=O)(Nc1ccc(C[C@@H]2CC[C@H]([C@H](O)c3ccccc3)N2)cc1)c1cccc2cccnc12` [Example 237]: the EC50 is 101 to 1000 nM. In the case of `Cc1nccc(-c2cccc(S(=O)(=O)Nc3ccc(C[C@@H]4CC[C@H]([C@H](O)c5ccccc5)N4)cc3)c2)n1` [Example 243], the EC50 was 101 to 1000 nM.

The same assay, now with this note: Table 8; read-out: Human β3 Functional.
Turning to `CC(NC(=O)Nc1ccc(C[C@@H]2CC[C@H]([C@H](O)c3ccccc3)N2)cc1)c1cscn1` (stereo partly shown) [Example 252], the EC50 was in the range of 101 to 1000 nM.

As for `O=C(Nc1ccc(C[C@@H]2CC[C@H]([C@H](O)c3ccccc3)N2)cc1)N1CCc2cccnc21` [Example 257], the EC50 is 101 to 1000 nM.

The same assay, now with this note: Table 9; read-out: Human β^3 Functional.
As to `CC(NC(=O)c1c(F)cccc1F)C(=O)Nc1ccc(C[C@@H]2CC[C@H]([C@H](O)c3ccccc3)N2)cc1` (stereo partly shown) [Example 267], the EC50 is less than 1 nM.

The same assay, now with this note: Table 10; β3AR-cAMP; read-out: Human β3 Functional.
`Nc1nc2c(s1)CCC2C(=O)Nc1ccc(CC2CCC(C(O)c3cccc(F)c3)N2)cc1` (single isomer, unassigned) [Example 277]: the EC50 is less than 1 nM. With `O=C(Cn1ncccc1=O)Nc1ccc(C[C@@H]2CC[C@H]([C@H](O)c3cccc(F)c3)N2)cc1` [Example 281], the EC50 was 1 to 10 nM.

The same assay, now with this note: Table 12; read-out: Human β3 Functional.
In the case of `O=C(Nc1ccc(C[C@@H]2CC[C@H]([C@H](O)c3ccc(F)c(F)c3)N2)cc1)[C@@H]1CCc2scnc21` [Example 290], the EC50 was less than 1 nM.

The same assay, now with this note: given as a range; cAMP, CHO cells; read-out: human β3 functional activity.
For `Nc1nc(CC(=O)Nc2ccc(C[C@@H]3CC[C@H]([C@H](O)c4ccccc4)N3)cc2Br)cs1` [Example 312, 2-(2-Amino-1,3-thiazol-4-yl)-N-[2-bromo-4-({(2S,5R)-5-[(R)-hydroxy(phenyl)methyl]pyrrolidin-2-yl}methyl)phenyl]acetamide], the EC50 lay in the range of 11 to 100 nM.

Still in this assay, the particulars now being: human β3 functional activity, shown as ranges; Table 13; read-out: Human β3 Functional.
On to `O=C(Nc1ccc(C[C@@H]2CC[C@H]([C@H](O)c3cccc(Cl)c3)N2)cc1)[C@H]1CCc2scnc21` [Example 296], for which the EC50 was in the range of 11 to 100 nM. With `Nc1nc2c(s1)CCC2C(=O)Nc1ccc(CC2CCC(C(O)c3cccc(Cl)c3)N2)cc1` (single isomer, unassigned) [Example 295], the EC50 was less than 1 nM. Consider `O=C(Nc1ccc(CC2CCC(C(O)c3cccc(Cl)c3)N2)cc1)C1CCc2sc(Br)nc21` (single isomer, unassigned) [Example 299], for which the EC50 lay in the range of 11 to 100 nM. Same read-out and setting: as for `O=C(Nc1ccc(CC2CCC(C(O)c3cccc(Cl)c3)N2)cc1)C1CCc2sc(F)nc21` (single isomer, unassigned) [Example 301], the figure is 11 to 100 nM.

The same assay, now with this note: human β3 functional activity, shown as ranges; Table 14; read-out: Human β3 Functional.
As for `Nc1nc2c(s1)CCC2C(=O)Nc1ccc(CC2CCC(C(O)c3cccc(Cl)c3)N2)cc1` (single isomer, unassigned) [Example 311], the EC50 lay in the range of 1 to 10 nM.
